Columns and labels:
FPN = conditions: HepG2 cells, 250 μM manganese for 4 h; expression without manganese normalized to 1; mean±SE, N=4
Experimental: (§1) Cells were treated with 0 or 250 μM manganese for 4 h, and gene expression was analyzed by qRT-PCR. For each transcript, expression without manganese treatment was normalized to 1. N=4. Data are mean±SE.
(§2) Cell culture. HepG2 cells were grown in Eagle's modified essential medium (MEM; Corning) with 10% fetal bovine serum (Atlanta Biologicals), 100 IU/ml penicillin (Corning), and 100 μg/ml streptomycin (Corning). 293T cells were maintained in Dulbecco's modified essential medium/F12 (Thermo) supplemented with 10% fetal bovine serum, penicillin (100 IU/ml), and streptomycin (100 μg/ml). Human primary hepatocytes were purchased from XenoTech (catalog #HPCH10+) and cultured according to protocols provided by the supplier.
(§3) manganese and drug treatments in cell culture. Cells were treated with indicated levels of manganese as manganeseCl2.4H2O (Fisher). Vehicle for manganese treatment was water. Prolyl hydroxylase inhibitors roxadustat (Caymen), vadadustat, and molidustat (both APE-Bio); the HIFα inhibitor LW6 (Selleckchem); the proteasomal inhibitor MG132 (Sigma); and the transcription inhibitor actinomycin D (Sigma) were dissolved in DMSO. […] Vehicle treatment for all drugs was DMSO.
(§4) Quantitative RT-PCR assays. RNA extraction from HepG2 cells and mouse tissue, reverse transcription to cDNA, and qRT-PCR analyses were performed as described by us previously (47, 50). For analyses of mouse brain samples, a part of the midbrain, including the basal ganglia, was used. Transcript levels were quantified using the ΔΔCT method with 18S (in mice) or TBP (in HepG2 cells) as the internal control, also as described by us previously (47, 50).

SPCA1 = conditions: HepG2 cells, 250 μM manganese for 4 h; expression without manganese normalized to 1; mean±SE, N=4
Experimental: as §1, §2, §3, §4

SLC39A8 = conditions: HepG2 cells, 250 μM manganese for 4 h; expression without manganese normalized to 1; mean±SE, N=4
Experimental: as §1, §2, §3, §4

DMT1 = conditions: HepG2 cells, 250 μM manganese for 4 h; expression without manganese normalized to 1; mean±SE, N=4
Experimental: as §1, §2, §3, §4

SLC39A14 = conditions: HepG2 cells, 250 μM manganese for 4 h; expression without manganese normalized to 1; mean±SE, N=4
Experimental: as §1, §2, §3, §4

SLC30A10 = assay type: cell-based; conditions: primary human hepatocytes, 250 μM manganese for 4 h
Experimental: (§5) (A) and (B): qRT-PCR assays in cells treated with or without 10 μM LW6 for 1 h followed by 0 or 250 μM manganese for 4 h (A) or with or without 20 μM roxadustat or 80 μM vadadustat for 16 h (B). […] For (B), expression in the absence of drug treatment was normalized to 1. N=3. Mean±SE. *P<0.05 by t-test (A) or one-way ANOVA and Dunnett's post hoc test for the comparison between no drug and other conditions (B).
as §2, §3, §4

VEGF = assay type: cell-based; conditions: primary human hepatocytes, 250 μM manganese for 4 h
Experimental: as §5, §2, §3, §4

O.O.O.O.[Cl][Mn][Cl] [manganese, manganeseCl2.4H2O]
Relative expression after manganese, FPN transcript (FPN): 0.77 ± 0.21 | Relative expression after manganese, SPCA1 transcript (SPCA1): 1.00 ± 0.05 | Relative expression after manganese, SLC39A8 transcript (SLC39A8): 0.87 ± 0.09 | Relative expression after manganese, DMT1 transcript (DMT1): 0.92 ± 0.03 | Relative expression after manganese, SLC39A14 transcript (SLC39A14): 0.71 ± 0.02 | SLC30A10 expression after manganese (SLC30A10): increased | VEGF expression after manganese (VEGF): increased
